# Experiments:
# BioA (EcBioA) = BioA (EcBioA) (Escherichia coli, UniProt P12995); experiment: BioA-BioD coupled enzyme assay with KAPA as substrate, LC-MS readout of desthiobiotin (IC50 […]); format: biochemical
# [1] = target: BioA derived from S. lydicus (SlBioA); experiment: BioA-BioD coupled enzyme assay with KAPA as substrate, LC-MS readout; format: biochemical, Streptomyces lydicus
# [2] = target: streptavidin 2 (Sav2), residues 45-169 (S. avidinii); experiment: not stated; in solution; method not given
# Chain of BioA (EcBioA) (P12995 whole entry): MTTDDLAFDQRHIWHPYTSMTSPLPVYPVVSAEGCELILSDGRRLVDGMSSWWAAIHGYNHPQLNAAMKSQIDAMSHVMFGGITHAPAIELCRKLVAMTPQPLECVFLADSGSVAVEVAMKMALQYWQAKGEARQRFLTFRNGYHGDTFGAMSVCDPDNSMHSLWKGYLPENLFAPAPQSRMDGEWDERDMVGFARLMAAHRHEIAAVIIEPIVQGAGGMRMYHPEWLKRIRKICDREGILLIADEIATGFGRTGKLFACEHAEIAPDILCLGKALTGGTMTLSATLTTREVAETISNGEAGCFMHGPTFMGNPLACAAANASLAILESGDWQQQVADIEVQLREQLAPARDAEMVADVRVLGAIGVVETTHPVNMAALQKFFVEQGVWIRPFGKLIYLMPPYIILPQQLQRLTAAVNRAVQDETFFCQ
stoichiometry N [2],Molecule,Ki (BioA (EcBioA)) [µM],IC50 [1] [µM]
,"C[C@H](N)C(=O)CCCC[C@@H](C)C(=O)O [compound 5, α-methyl-KAPA]",14.9,6.5
4,"streptavidin 2 (Sav2), residues 45-169 (domain or fragment)",,

# Reference: PMC13336041, “Streptavidins Coordinate Biotin Sequestration and Self‐Resistance Within a Biotin‐Pathway Antibiotic Network” (Advanced Science, 2026)
